# How the values were obtained:
# NIH3T3 cells [1] = assay: TaCT signal by flow cytometry, NIH3T3 cells on TaCT substrates; format: cell-based
# Protocol: FIG. 1 provides a scheme of tension-activated cell tagging (TaCT). TaCT is based on 3′ and 5′ end mechanical pulling of a DNA duplex that leads to dehybridization. The stability of a dsDNA 24 mer was evaluated as a function of applied force generated using oxDNA simulation with a loading rate of 2.81×10^3 nm/s. The exponential moving average (EMA) indicates a 41 pN dehybridization transition. Flow cytometry histograms of NIH3T3 cells cultured on TaCT substrates as well as control surfaces with (−)cholesterol, (−)RGD, and (+)LatB were obtained.
# NIH3T3 cells were seeded onto the TaCT substrates, allowed to spread, and collected by gentle scraping. The TaCT signal was then measured by flow cytometry. Probes lacking RGD, probes lacking cholesterol, as well as full TaCT probes cells treated with Lat B were used as negative controls. […] Background tagging of cells due to cell spreading and proximity to the surface leads to negligible TaCT signal.
# mouse platelets [2] = assay: TaCT signal by flow cytometry, mouse platelets on TaCT surface; format: cell-based; conditions: mouse platelets seeded 30 min
# Protocol: Experiments were performed to determine whether this strategy works in primary cells. […] When mouse platelets were seeded onto the TaCT surface for 30 min, a loss of Atto647N signal was noted that was coupled with an increase in Cy3B. This confirmed that platelet integrin force transmission was sufficient to mediate DNA peeling with F greater than 41 pN.
# [3] = system: mouse embryonic fibroblasts; assay: fluorescence microscopy of force-induced DNA duplex peeling under mouse embryonic fibroblasts; format: cell-based
# Protocol: FIG. 4A illustrates Lat B inhibition of cells. […] RICM and Cy3B microscopy images were obtained from MEF cells incubated on peeling probe substrate after early Lat B treatment. Cells were treated with 20 μM Lat B after 15 min of plating on the substrate and imaged after 45 min of incubation.
# FIG. 4B illustrates that when integrin force signals are already generated on peeling probe substrate, if the force transmission is terminated by late Lat B treatment, with additional BHQ2 peeling strand, the peeling probe can rehybridize to the duplex form. RICM and raw Cy3B microscopy images were obtained of MEF cells treated with 20 μM Lat B 50 min after seeding. The tension signal remained after 10 min of Lat B treatment and diminished after the addition of excess BHQ2 peeling strand.
# The Cy3B signal was primarily localized to the cell edge, consistent with the distribution of focal adhesions (FAs) and accumulated as a function of time. The growth of Cy3B signal corresponded to the loss of Atto647N signal and confirmed the force-induced peeling mechanism. This mechanism can generate high quality maps of integrins forces independent of cholesterol conjugation to the probe. […] The observed tension signal colocalized with markers of FAs such as vinculin and phosphorylated focal adhesion kinase (FAK pY397), as well as actin stress fibers, confirming that forces were primarily transmitted by integrins within FAs. The peeling signal mirrors that of the turn-on tension gauge tether (TGT) probes but avoids termination of mechanotransduction which represents an advantage as a molecular force sensor. […] Maps accumulated mechanical events over time.
# MEF cells (WT and vin−) = assay: TaCT on co-cultured WT and vinculin null MEF cells, flow cytometry; format: cell-based, mouse
# Protocol: Vinculin is an adaptor protein that localizes to FAs linking the cytoskeleton to adhesion receptors and aids in FA maturation. TaCT was performed on these two cell types separately. The vin− cells were stained with cell tracker dye, CMFDA, before plating onto TaCT substrates. To ensure that the TaCT signal is not due to differential uptake, cholesterol uptake of WT and vin− cells was measured by flow cytometry in parallel with each TaCT assay. WT cells had larger spreading area and produced more tension signal compared to vin− cells in the Cy3B channel. […] Experiments were performed to determine whether this differential tension signal could be detected when the WT and vin− were co-cultured.
# [4] = FRET efficiency of surface-immobilized TaCT probes; format: physicochemical
# Text: In one example, TaCT probe is comprised of a load-bearing strand and a 24mer peeling strand. […] The loading-bearing strand also incorporated an internal Cy3B dye. The complementary peeling strand was designed to release once force (F) is greater than F peel. The peeling strand termini were labeled with Atto647N and cholesterol. The TaCT probes were annealed and immobilized on streptavidin-coated glass slides. At rest, the probe is in the dsDNA form where Cy3B and Atto647N form a FRET pair. When F is greater than F peel, the Atto647N strand peels and dissociates, while the Cy3B dye on the load bearing strand is de-quenched. […] The probe density was measured at 5200 molecules/μm^2 using a quantitative fluorescence calibration, which allows one to convert the Cy3B fluorescence signal to a % peel.
# MEF cells [5] = assay: Y27632 dose-dependent response of TaCT / tension signal in MEF cells; format: cell-based, mouse; conditions: Y27632 pre-treatment
# Text: To showcase that TaCT is an effective method to report cell receptor forces, a Rho-associated protein kinase (ROCK) inhibitor, Y27632, was used to disrupt the force transmission through cytoskeleton and measure the dose-dependent response in MEF cells. Y27632 inhibits ROCK kinases by competing with ATP binding, and further result in decreased myosin activity, destabilization of actin filament and abolished stress formation.
# [6] = biological target: Rho-associated protein kinase (ROCK); conditions: cited from earlier work
# mouse platelets [7] = assay: flow cytometry of DNA strand uptake in solution (cholesterol-DNA cell tagging); format: cell-based; conditions: 50 nM, 30 min
# Protocol: FIG. 5A illustrates a scheme for making flow cytometry measurements of the DNA strands uptake in solution. Mouse platelets were incubated with 50 nM of cholesterol peeling strand, TaCT duplex, load-bearing strand, TaCT duplex lacking RGD, and load-bearing strand lacking RGD in Tyrode's buffer for 30 min and spun down three times to wash away the excess oligos. The association was measured in both Atto647N and Cy3B channels by a flow cytometer.
# (§1) After confirming that DNA peeling consistently maps molecular traction forces, cholesterol-DNA cell tagging for TaCT was investigated. Cholesterol-DNA is contemplated to partition into the plasma membrane of cells. […] The stability of TaCT tags was examined by incubating cholesterol-single stranded DNA with cells, washing, and measuring the loss of DNA as a function of time. Approximately 20-30% of the cholesterol-tethered DNA dissociated at 90 min. Accordingly, the cells were incubated on the surface for 1 h, which allowed for focal adhesion formation and TaCT method to proceed while limiting cholesterol dissociation.
# MEF cells [8] = assay: concentration dependent incorporation of cholesterol peeling strand; format: cell-based, mouse; conditions: 0, 1, 10, 100 nM, 1 h
# Protocol: FIG. 5C provides a scheme showing flow cytometry measurements of the concentration dependent incorporation of cholesterol peeling strand. MEF cells were incubated with 0, 1, 10, and 100 nM of cholesterol peeling strand for 1 h. The excess cholesterol peeling strand was washed away by spinning down in PBS three times, and the fluorescence intensity of cells was measured by a flow cytometer.
# Linear relationship between cholesterol strand concentration and cell association was found, R2=0.977.
# as §1
# NIH3T3 cells [9] = assay: cholesterol peeling strand dissociation from the cell; format: cell-based; conditions: at 90 min after washing
# Protocol: FIG. 5E provides a scheme showing the measurement of cholesterol peeling strand dissociation from the cell. NIH3T3 cells were incubated with 100 nM cholesterol peeling strand for 30 min and rinsed with PBS 3 times. Cells were divided into 6 aliquots and the remaining cholesterol strand in cells was measured every 30 min for 150 min by flow cytometry.
# The normalized MFI from 2 replicates was plotted to show the dissociation of cholesterol strand over time in NIH3T3 cells.
# as §1
compound,measurement,setting,value
"TaCT probe: DNA duplex: RGD/Cy3B/biotin load-bearing strand (SEQ ID NO: 1) and 24mer Atto647N, cholesterol peeling strand (SEQ ID NO: 2) (DNA 1 TTTTTTTTTTAGTGAGCTCTGAAGTCTTAGAACT; DNA 2 AGTTCTAAGACTTCAGAGCTCACT; DNA, backbone and methylation of C not given here; RGD and biotin at the two termini, internal Cy3B, peeling strand Atto647N and cholesterol)",Atto647N geometric mean fluorescence intensity (gMFI) increase compared to controls,NIH3T3 cells [1]; NIH3T3 cells incubated on TaCT,greater than 2 fold
same,Cy3B gMFI,NIH3T3 cells [1]; NIH3T3 cells incubated on TaCT compared to controls,did not change
same,force positive population,"NIH3T3 cells [1]; NIH3T3 cells on substrate, 1 h, flow cytometry",27.6%
same,force positive population,mouse platelets [2],13.3%
same,mechanical events with F greater than 41 pN,[3]; equivalent of % peel and probe density,approximately 47 mechanical events/μm^2
same,probes peeled under each cell,[3]; quantitative microscopy analysis,0.9%
same,force positive population,MEF cells (WT and vin−); WT MEF cells in mixed population (co-culture),24.4%
same,force positive population,MEF cells (WT and vin−); vin− MEF cells in mixed population (co-culture),5.2%
same,Cy3B signal enhancement upon peeling,[4],greater than 10 fold
same,FRET efficiency,[4]; Cy3B / Atto647N pair in dsDNA form,93.8%
C[C@@H](N)[C@H]1CC[C@H](C(=O)Nc2ccncc2)CC1 [Y27632],IC50,"MEF cells [5]; Mus musculus, flow cytometry, ROCK inhibitor",773 nM
same,Cy3B tension signal,MEF cells [5]; microscopy,decreased Cy3B tension signal
same,literature reported IC50 values,[6],hundreds of nM to low μM
"Cholesterol-single stranded DNA conjugates: 24 mer peeling strand (SEQ ID NO: 2) labeled with Atto647N and cholesterol (DNA AGTTCTAAGACTTCAGAGCTCACT; DNA, backbone and methylation of C not given here; Atto647N and cholesterol on the termini)",effectiveness at tagging cells compared to cholesterol-double stranded DNA conjugates,mouse platelets [7],approximately 50 fold
same,membrane-association versus soluble conjugate concentration,MEF cells [8],linearly proportional
same,cholesterol-tethered DNA dissociated,NIH3T3 cells [9],20-30%
"C/C1=C/C(=O)O[C@@H]2C[C@@H](CC[C@H](C)/C=C\CC1)O[C@@](O)([C@@H]1CSC(=O)N1)C2 [Lat B, Latrunculin B, reference compound]",force positive population,"NIH3T3 cells [1]; NIH3T3 cells on full TaCT probes, cells treated with Lat B",3.5%
same,tension signal changes,[3]; Lat B 50 min after seeding (20 μM),did not show tension signal changes
same,peeling signal,"[3]; cells treated with Lat B (early, 20 μM)",significantly reduced peeling signal
